Activity calls are given as the source filed them. The calls are words filed in the database; no cut-off is given here.
Columns and labels:
[1] = target: Cytochrome P450 2C9 (Homo sapiens, UniProt P11712); assay: Inhibition of CYP2C9 in human liver microsomes using diclofenac as substrate in presence of NADPH by LC/MS/MS analysis; format: ADME
[2] = target: Cytochrome P450 2C19 (Homo sapiens, UniProt P33261); assay: Inhibition of CYP2C19 in human liver microsomes using S-mephenytoin as substrate in presence of NADPH by LC/MS/MS analysis; format: ADME
[3] = Volume of distribution in Sprague-Dawley rat at 1 mg/kg, iv by LC/MS/MS analysis; format: ADME, organism-based; details: in vivo
[4] = Volume of distribution in cynomolgus monkey at 1 mg/kg, iv by LC/MS/MS analysis; format: ADME, organism-based, Macaca fascicularis; details: in vivo
[5] = Cmax in Sprague-Dawley rat brain at 30 mg/kg, po by LC/MS/MS analysis; format: ADME, organism-based; design: dose 30 mg/kg, route oral
[6] = Drug level in tumor of FAK expressing human CWR22 cells xenografted Nu/Nu mouse at 55 mg/kg, po administered as single dose measured at 6 hrs by LC-MS/MS analysis; format: ADME, organism-based, Neoplasm; details: read-out: Drug uptake
[7] = tested on: HCC827; assay: Antitumor activity against human HCC827 cells expressing activated FAK xenografted in SCID-Beige mouse assessed as tumor growth inhibition at 30 mg/kg, po bid administered for 28 days; format: functional, organism-based

Sequence of Cytochrome P450 2C19 (P33261 whole entry): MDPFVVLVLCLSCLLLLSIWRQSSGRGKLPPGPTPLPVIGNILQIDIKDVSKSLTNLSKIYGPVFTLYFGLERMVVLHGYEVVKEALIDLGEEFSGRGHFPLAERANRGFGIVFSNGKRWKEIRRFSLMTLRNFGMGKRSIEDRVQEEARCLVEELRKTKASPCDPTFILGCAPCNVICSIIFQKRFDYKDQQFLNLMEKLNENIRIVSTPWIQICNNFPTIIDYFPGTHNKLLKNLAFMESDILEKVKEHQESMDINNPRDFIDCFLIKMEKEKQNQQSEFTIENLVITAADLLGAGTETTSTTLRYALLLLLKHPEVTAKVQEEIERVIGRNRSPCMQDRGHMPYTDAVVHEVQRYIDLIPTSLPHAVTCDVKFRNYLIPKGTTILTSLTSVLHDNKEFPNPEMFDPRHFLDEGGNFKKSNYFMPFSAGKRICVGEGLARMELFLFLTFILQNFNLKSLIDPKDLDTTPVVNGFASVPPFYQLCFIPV
Sequence of Cytochrome P450 2C9 (P11712 whole entry): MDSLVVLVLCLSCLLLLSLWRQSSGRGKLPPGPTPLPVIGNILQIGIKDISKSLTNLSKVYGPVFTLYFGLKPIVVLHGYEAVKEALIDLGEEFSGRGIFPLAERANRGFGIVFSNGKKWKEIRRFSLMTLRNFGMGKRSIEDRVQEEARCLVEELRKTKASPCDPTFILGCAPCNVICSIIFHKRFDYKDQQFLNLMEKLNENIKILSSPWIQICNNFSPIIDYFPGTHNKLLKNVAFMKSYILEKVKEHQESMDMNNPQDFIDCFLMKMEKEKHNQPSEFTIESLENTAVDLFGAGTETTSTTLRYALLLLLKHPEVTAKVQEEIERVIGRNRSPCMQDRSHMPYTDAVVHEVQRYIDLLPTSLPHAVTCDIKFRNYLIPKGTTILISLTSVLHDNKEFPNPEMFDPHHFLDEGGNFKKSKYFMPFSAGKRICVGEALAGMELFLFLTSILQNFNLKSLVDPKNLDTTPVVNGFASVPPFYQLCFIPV

CNC(=O)c1ccccc1Nc1nc(Nc2ccc3c(c2OC)CCC[C@H](N2CCN(CCO)CC2)C3)ncc1Cl [CEP-37440]
IC50 [1]: > 5.6 µM | IC50 [2]: > 5.6 µM | Vd [3]: 0.8 L/kg | Vd [4]: 13.2 L/kg | Cmax [5]: 3160 ng/g | concentration at 6 h [6]: 8680 ng/g | TGI [7]: Active

Reference: ChEMBL document CHEMBL3856231 (J Med Chem, 2016)
